Starred links: 1 amine or outer side, 2 acyl side, 3 side chain; linkers in the order of their positions; H or OH if unused. Non-standard residues stand in square brackets, D forms with d. Residues, ends and D or L forms follow the SMILES beside them. *: point of attachment. Dolaproine = CO[C@@H]([C@@H]1CCCN1)[C@@H](C)C(=O)O; Hexanoyl(6-maleimido) = O=C1C=CC(=O)N1CCCCCC(=O)*; Dil = CC[C@H](C)[C@H](NC)[C@@H](CC(=O)O)OC; PABC = O=C(OCc1ccc(N[*:1])cc1)[*:2]; X1 = C[C@@H](N*)[C@@H](O)c1ccccc1; Cit = NC(=O)NCCC[C@H](N)C(=O)O; NMeV = CN[C@H](C(=O)O)C(C)C
What was measured:
[1] = biological target: recombinant human LPA-1 (Homo sapiens, UniProt Q92633); conditions: cited from earlier work
Sequence of recombinant human LPA-1 (Q92633 whole entry): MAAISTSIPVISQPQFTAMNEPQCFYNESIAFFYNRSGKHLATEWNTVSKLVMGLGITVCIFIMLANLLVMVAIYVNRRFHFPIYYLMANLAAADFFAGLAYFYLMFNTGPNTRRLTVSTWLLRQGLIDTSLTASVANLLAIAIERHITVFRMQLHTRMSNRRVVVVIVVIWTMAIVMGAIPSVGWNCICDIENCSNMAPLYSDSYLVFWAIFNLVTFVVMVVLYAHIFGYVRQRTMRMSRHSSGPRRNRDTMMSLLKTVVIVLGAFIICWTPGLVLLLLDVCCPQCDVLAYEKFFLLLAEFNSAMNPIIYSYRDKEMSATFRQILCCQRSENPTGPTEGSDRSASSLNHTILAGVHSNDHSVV

[2] = test system: human A2058 melanoma cells; conditions: read-out: IC50, inhibition of LPA-1-induced chemotaxis; cited from earlier work
[3] = cited from earlier work
[4] = test system: LPA-induced histamine release; conditions: mice; cited from earlier work
[5] = biological target: mouse LPA-1 (Mus musculus, UniProt P61793); conditions: cited from earlier work
Sequence of mouse LPA-1 (P61793 whole entry): as the sequence (Q92633 whole entry) above, with I4A, I8S, P22Q, H40Y, I61V, E193D, N194H, I269V, S331N, T335N counted along it

[6] = test system: mouse LPA-1/CHO cells; conditions: read-out: IC50, inhibition of LPA-1-induced chemotaxis; cited from earlier work
[7] = test system: RAW264.7 (RAW) cells; assay: MMAE cytotoxicity / cell growth on RAW264.7 cells (IncuCyte); type: cell-based, mouse
Experimental: The dose-response effects of MMAE on RAW cell growth are shown in microphotographs (top), and measurements of cells growth (bottom left), and confluence (bottom right).
MMAE cytotoxicity was assessed on RAW264.7 (RAW) cells. RAW cells are a […] macrophage cell line. 10,000 RAW cells were seeded in each well of a 96 well plate, and cell growth was monitored using an IncuCyte instrument to image cells over a period of approximately 5 days. […] Images show cells after 5 days of treatment with the indicated dose of MMAE or DMSO; growth inhibition is evident from the decreased number of cells after treatment with MMAE, while cell death is indicated by the rounding up of cells (evident in the 10, 100, and 300 nM images). MMAE has a steep dose-response curve.

[8] = Phase 2 study (Palmer 2018); cited from earlier work
[9] = test system: AIM2 inflammasome; conditions: cited from earlier work
[10] = test system: NLRC4 inflammasome; conditions: cited from earlier work
[11] = test system: TLR2 signaling; conditions: cited from earlier work
[12] = test system: NLRP1 inflammasome; conditions: cited from earlier work
[13] = biological target: NLRP3 (Sus scrofa, UniProt H2EW08); conditions: models for myocardial infarction; cited from earlier work
Sequence of NLRP3 (H2EW08 1-1036): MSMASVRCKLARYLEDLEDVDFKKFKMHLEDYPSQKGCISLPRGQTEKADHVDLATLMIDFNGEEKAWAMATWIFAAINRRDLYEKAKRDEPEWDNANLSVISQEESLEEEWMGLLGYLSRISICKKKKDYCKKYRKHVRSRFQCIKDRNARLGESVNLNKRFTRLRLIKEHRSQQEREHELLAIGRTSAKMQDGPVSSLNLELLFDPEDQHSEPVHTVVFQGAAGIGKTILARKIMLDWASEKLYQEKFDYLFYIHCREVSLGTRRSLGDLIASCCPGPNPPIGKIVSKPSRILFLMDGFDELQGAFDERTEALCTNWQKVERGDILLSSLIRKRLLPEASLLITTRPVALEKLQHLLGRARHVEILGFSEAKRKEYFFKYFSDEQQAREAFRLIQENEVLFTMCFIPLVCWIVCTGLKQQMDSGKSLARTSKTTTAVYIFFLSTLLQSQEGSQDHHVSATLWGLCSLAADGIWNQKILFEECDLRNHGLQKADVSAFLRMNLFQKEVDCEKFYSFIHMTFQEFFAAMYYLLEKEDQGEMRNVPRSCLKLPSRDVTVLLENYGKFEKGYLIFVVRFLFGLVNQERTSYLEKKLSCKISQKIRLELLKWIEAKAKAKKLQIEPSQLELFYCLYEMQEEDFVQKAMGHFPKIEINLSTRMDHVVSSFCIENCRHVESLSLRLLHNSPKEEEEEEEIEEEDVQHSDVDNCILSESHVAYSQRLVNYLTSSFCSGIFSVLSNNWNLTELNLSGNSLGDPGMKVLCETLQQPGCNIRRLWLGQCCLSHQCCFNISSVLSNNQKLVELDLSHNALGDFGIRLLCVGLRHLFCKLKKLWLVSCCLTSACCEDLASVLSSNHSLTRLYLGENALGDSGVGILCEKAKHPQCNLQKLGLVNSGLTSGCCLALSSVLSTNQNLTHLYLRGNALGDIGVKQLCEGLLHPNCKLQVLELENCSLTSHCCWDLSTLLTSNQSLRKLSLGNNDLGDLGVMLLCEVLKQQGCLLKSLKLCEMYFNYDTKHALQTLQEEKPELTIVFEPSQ

Cc1noc(-c2ccc(-c3ccc(CC(=O)O)cc3)cc2)c1NC(=O)O[C@H](C)c1ccccc1 [AM095, 1,1′-Biphenyl]-4-acetic acid, 4′-[3-methyl-4-[[[(1R)-1-phenylethoxy]carbonyl]amino]-S-isoxazolyl[ ]-]
IC50 [1]: 980 nM
IC50 [2]: 230 nM
ED50, reduction of BALF collagen and protein ([3]; in lungs): 10 mg/kg
macrophage and lymphocyte infiltration induced by bleomycin ([3]; mice): decrease both macrophage and lymphocyte infiltration
ED50, block of LPA-induced histamine release [4]: 8.3 mg/kg
IC50 [5]: 730 nM
IC50 [6]: 780 nM

CC[C@H](C)[C@@H]([C@@H](CC(=O)N1CCC[C@H]1[C@H](OC)[C@@H](C)C(=O)N[C@H](C)[C@@H](O)c1ccccc1)OC)N(C)C(=O)[C@@H](NC(=O)[C@H](C(C)C)N(C)C(=O)OCc1ccc(NC(=O)[C@H](CCCNC(N)=O)NC(=O)[C@@H](NC(=O)CCCCCN2C(=O)C=CC2=O)C(C)C)cc1)C(C)C [vc-MMAE, maleimide-vc-PABC-MMAE] ({Hexanoyl(6-maleimido)}-V[Cit][PABC][NMeV]V[Dil][Dolaproine]-X1)
fold less toxic than unmodified MMAE ([7]; administered to cells as a free drug, FIG. 8A): approximately 100 fold

Cc1noc(-c2ccc(-c3ccc(C4(C(=O)O)CC4)cc3)cc2)c1NC(=O)O[C@H](C)c1ccccc1 [AM152, Cyclopropanecarboxylic acid, 1-[4′-[3-methyl-4-[[[(1R)-1-phenylethoxy]carbonyl]amino]-S-isoxazolyl][1,1′-biphenyl]-4-yl]-]
toxicity leading to early termination of the study [8]: gall bladder toxicity and early signs of liver toxicity

CC[C@H](C)[C@@H]([C@@H](CC(=O)N1CCC[C@H]1[C@H](OC)[C@@H](C)C(=O)N[C@H](C)[C@@H](O)c1ccccc1)OC)N(C)C(=O)[C@@H](NC(=O)[C@@H](NC)C(C)C)C(C)C [MMAE, monomethyl auristatin E] (H-[NMeV]V[Dil][Dolaproine]-X1)
MMAE concentrations giving potent growth inhibition and cell death ([7]; free drug, about 5 days, FIG. 7): above 1.1 nM

CC(C)(O)c1coc(S(=O)(=O)NC(=O)Nc2c3c(cc4c2CCC4)CCC3)c1 [MCC950, N-[[(1,2,3,5,6,7-hexahydro-s-indacen-4-yl)amino]carbonyl]-4-(1-hydroxy-1-methylethyl)-2-furansulfonamide]
inhibition of AIM2 inflammasome [9]: does not inhibit
inhibition of NLRC4 inflammasome [10]: does not inhibit
inhibition of TLR2 signaling [11]: does not inhibit
inhibition of NLRP1 inflammasome [12]: does not inhibit
NLRP3-induced IL-1β production [13]: inhibits NLRP3-induced IL-1β production

— patent US20240108747A1, “EXTRACELLULAR VESICLE CONJUGATES AND USES THEREOF” (LONZA SALES AG, priority 2019, published 2024)
